Experimental data as given in patent publication US11291704B2, “Composition for preventing or treating obesity containing ethanolic extract of Ramulus mori” (Korea University Research and Business Foundation, priority 2016, dated 2022).

System: 3T3-L1 cells
Assay: Lipid accumulation evaluation, Oil red O staining of MDI-differentiated adipocytes
Format: cell-based
Settings: 5 mM; DMSO-only sample = 100%; absorbance at 500 nm
Method: For induction of 3T3-L1 cells into adipocytes, the cells were treated with MDI (5 μg/ml insulin, 0.5 mM IBMX, and 1.0 μM dexamethasone) in DMEM containing 10% FBS and 1% penicillin-streptomycin, followed by induction of differentiation for 2 days. The differentiated 3T3-L1 cells were washed with physiological buffered saline (PBS), and then fixed with 10% formalin for 1 hour. The fixed cells were washed twice with ddH2O, treated with 60% isopropanol for 5 minutes, and then stained with Oil red O solution (dissolved in 60% isopropanol) for 10 minutes. After staining, the cells were washed four times with ddH2O, and de-stained with 100% isopropanol for 10 minutes, and then the cells were observed using a microscope and measured for absorbance at 500 nm.
The result of the sample treated with only DMSO used as a solvent was converted to 100%, and quantitatively measured for lipids.

Which lipid accumulation does the source give for `CC(=O)N[C@@H](CS)C(=O)O` [n-acetyl cysteine] here?
The lipid accumulation was 20.6±3.7%.
